Source: patent US20110275643A1, “AROYLQUINOLINE COMPOUNDS” (NATIONAL HEALTH RESEARCH INSTITUTES, priority 2010, published 2011)
Read-outs that look alike come from different tables or passages of the source.

Key:
[1] = test system: oral epidermoid carcinoma KB cells; test: In vitro cell growth inhibition, methylene blue dye assay, KB cells; type: cell-based, Human
Description: (§1) Human oral epidermoid carcinoma KB cells, non-small-cell lung carcinoma H460 cells, colorectal carcinoma HT29 cells and stomach carcinoma MKN45 cells were maintained in RMPI-1640 medium supplied with 5% fetal bovine serum (FBS). […] Cells in logarithmic phase were cultured at a density of 5000 cells/mL/well in a 24-well plate. KB-VIN10 cells were cultured in drug-free medium for 3 days prior to use. The cells were exposed to various concentrations of the test drugs for 72 hours. The methylene blue dye assay was used to evaluate the effect of the test compounds on cell growth (Finlay et al., 1984).

[2] = test system: colorectal carcinoma HT29 cells; test: In vitro cell growth inhibition, methylene blue dye assay, HT29 cells; type: cell-based, Human; conditions: read-out: IC50 on the proliferation of cells, HT29
Description: as §1

[3] = test system: stomach carcinoma MKN45 cells; test: In vitro cell growth inhibition, methylene blue dye assay, MKN45 cells; type: cell-based, Human; conditions: read-out: IC50 on the proliferation of cells, MKN45
Description: as §1

[4] = test system: non-small-cell lung carcinoma H460 cells; test: In vitro cell growth inhibition, methylene blue dye assay, H460 cells; type: cell-based, Human; conditions: read-out: IC50 on the proliferation of cells, H460
Description: as §1

MAP-rich tubulin = test: Tubulin polymerization in vitro assay (turbidimetric); type: biochemical, bovine; conditions: 37° C., 30 minutes, read-out: Inhibition of tubulin polymerization IC50 ± SD
Description: Turbidimetric assays (Liou et al., 2004; Kuo et al., 2004) of microtubules were performed as described by Bollag et al. 1995. In brief, microtubule-associated protein (MAP)-rich tubulin (from bovine brain, Cytoskeleton, Denver, Col.) has been dissolved in reaction buffer (100 mM PIPES (1,4-piperazinediethanesulfulfonic acid, pH 6.9), 2 mM magnesium chloride (MgCl2), 1 mM GTP (guanosine triphosphate)) in preparing of 4 mg/mL tubulin solution. Tubulin solution (240 μg MAP-rich tubulin per well) was placed in 96-well microtiter plate in the presence of test compounds or 2% (v/v) DMSO (dimethyl sulfoxide) as vehicle control. The increase in absorbance was measured at 350 nm in a PowerWave X Microplate Reader (Bio-Tek Instruments, Winooski, Vt.) at 37° C. and recorded every 30 seconds for 30 minutes.

[5] = test system: colchicine-binding site of tubulin; test: Tubulin competition-binding scintillation proximity assay ([3H]colchicine); conditions: for Inhibition of [3H]colchicine binding (% ± SD), 1 μM inhibitor / Inhibition of [3H]colchicine binding (% ± SD), 5 μM inhibitor: Tubulin at 1 μM, [3H]colchicine at 5 μM
Description: This assay was performed as described by Tahir et al., 2003. […] Then 80 μg of Streptavidin-labeled SPA (scintillation proximity assay) beads were added to each reaction mixture. Then the radioactive counts were directly measured by a scintillation counter.

[6] = test system: KB-VIN10 cells (overexpression of P-gp170/MDR); test: In vitro cell growth inhibition, methylene blue dye assay, MDR-positive KB-VIN10 cells; type: cell-based, Human; conditions: read-out: IC50 on the proliferation of cells, KB-VIN10
Description: as §1

[7] = test system: five cancer cell lines (KB, H460, HT29, MKN45, KB-VIN10); test: Antiproliferative activity, mean over five cancer cell lines; type: cell-based, Human; conditions: for IC50: Homo sapiens, read-out: mean IC50 value against five cancer cell lines
Description: The synthesized compounds 5 to 17 were evaluated for antiproliferative activities against four carcinoma cells, oral epidermoid carcinoma KB cells, non-small-cell lung carcinoma H460 cells, colorectal carcinoma HT29 cells and stomach carcinoma MKN45 cells, as well as the MDR-positive cell lines KB-VIN10, that overexpressed P-gp 170/MDR (Table 1). The controls were compounds 1 and 3.
as §1

[8] = Homo sapiens, KB cells, 72 hours, mean ± SD, read-out: IC50 on the proliferation of cells, KB
[9] = Homo sapiens, HT-29, HT29 cells, 72 hours, mean ± SD
[10] = Homo sapiens, MKN-45, MKN45 cells, 72 hours, mean ± SD
[11] = Homo sapiens, NCI-H460, H460 cells, 72 hours, mean ± SD
[12] = mean of KB, H460, HT29, MKN45, KB-VIN10
[13] = Homo sapiens, KB-VIN10 cells, 72 hours, mean ± SD
[14] = Homo sapiens, KB, 72 h, read-out: IC50 on the proliferation of cells, KB

IC50 [1, 8] [µM]	IC50 [2, 9] [µM]	IC50 [3, 10] [µM]	IC50 [4, 11] [µM]	IC50 [7, 12] [µM]	IC50 [6, 13] [µM]	melting point [°C]	SMILES	IC50 (MAP-rich tubulin) [µM]	Inhibition of [3H]colchicine binding (% ± SD), 1 μM inhibitor [5] [%]	Inhibition of [3H]colchicine binding (% ± SD), 5 μM inhibitor [5] [%]	IC50 [1, 14] [µM]	IC50 ([2]; Homo sapiens, HT-29, 72 h) [µM]	IC50 ([3]; Homo sapiens, MKN-45, 72 h) [µM]	IC50 ([4]; Homo sapiens, NCI-H460, 72 h) [µM]	IC50 [7] [µM]	IC50 ([6]; Homo sapiens, KB-VIN10, 72 h) [µM]	also measured
0.174 ± 0.0331	0.148 ± 0.017	0.245 ± 0.0327	0.18 ± 0.0255	0.173	0.117 ± 0.0237	158 to 159	COc1cc(C(=O)c2ccc3ccccc3n2)cc(OC)c1OC [Compound 5, 2-(3′,4′,5′-trimethoxybenzoyl)quinoline]	> 10									
0.024 ± 0.0061	0.0246 ± 0.003	0.0163 ± 0.0045	0.036 ± 0.0055	0.0244	0.0215 ± 0.0077	132 to 134	COc1cc(C(=O)c2ccc3ncccc3c2)cc(OC)c1OC [Compound 9, 6-(3′,4′,5′-trimethoxybenzoyl)quinoline]	2.9	51 ± 3	72 ± 3							
0.301 ± 0.0644	0.206 ± 0.0049	0.139 ± 0.0544	0.257 ± 0.0346	0.22	0.202 ± 0.0262	182 to 183	COc1ccc2cc(C(=O)c3cc(OC)c(OC)c(OC)c3)ccc2n1 [Compound 14, 2-methoxy-6-(3′,4′,5′-trimethoxybenzoyl)quinoline]	> 10									

The next lines start with the compound.

SMILES	IC50 [1, 8] [µM]	IC50 [2, 9] [µM]	IC50 [3, 10] [µM]	IC50 [4, 11] [µM]	IC50 [7, 12] [µM]	IC50 [6, 13] [µM]	melting point [°C]	IC50 (MAP-rich tubulin) [µM]	Inhibition of [3H]colchicine binding (% ± SD), 1 μM inhibitor [5] [%]	Inhibition of [3H]colchicine binding (% ± SD), 5 μM inhibitor [5] [%]	IC50 [1, 14] [µM]	IC50 ([2]; Homo sapiens, HT-29, 72 h) [µM]	IC50 ([3]; Homo sapiens, MKN-45, 72 h) [µM]	IC50 ([4]; Homo sapiens, NCI-H460, 72 h) [µM]	IC50 [7] [µM]	IC50 ([6]; Homo sapiens, KB-VIN10, 72 h) [µM]	also measured
COc1ccc(/C=C\c2cc(OC)c(OC)c(OC)c2)cc1O [Compound 1, combretastatin A-4, reference compound]								[…]	87 ± 1	95 ± 2							IC50 ([1]; KB cells, 72 hours, mean ± SD, read-out: IC50 on the proliferation of cells, KB): 0.0024 ± 0.0002 µM; IC50 ([2]; HT29 cells, 72 hours, mean ± SD): 0.835 ± 0.054 µM; IC50 ([3]; MKN45 cells, 72 hours, mean ± SD): 0.0049 ± 0.0002 µM; IC50 ([4]; H460 cells, 72 hours, mean ± SD): 0.0026 ± 0.0003 µM; IC50 ([6]; KB-VIN10 cells, 72 hours, mean ± SD): 0.0019 ± 0.0004 µM
COc1ccc2nc(C(=O)c3cc(OC)c(OC)c(OC)c3)ccc2c1 [Compound 12, 6-methoxy-2-(3′,4′,5′-trimethoxybenzoyl)quinoline]							143 to 145	3.5	40 ± 3	68 ± 2	0.0272 ± 0.0098	0.077 ± 0.0057	0.15 ± 0.0312	0.0615 ± 0.0205	0.067	0.0215 ± 0.0006	
COc1cc(C(=O)c2ccc3c(N)c(OC)ccc3n2)cc(OC)c1OC [Compound 15, 5-amino-6-methoxy-2-(3′,4′,5′-trimethoxybenzoyl)quinoline]							184.3 to 185.2	1.6	90 ± 0.5	97 ± 1	0.0003 ± 0.0001	0.0004 ± 0.0002	0.0003 ± 0.0002	0.0004 ± 0.0003	0.00032	0.0002 ± 0.0001	IC50 ([1]; Homo sapiens, KB, read-out: 50% Inhibition concentration (IC50) on the proliferation of KB cells line): 0.00031 µM; binding to the colchicine-binding domain in words ([5]; [3H]-colchicine binding assay): strongly bound to the colchicine-binding domain; fold improvement in the IC50 value over compound 12 ([7]; versus compound 12): > 100 fold
